Reference: PMC4831212 (The Biochemical journal, 2013)

Legend:
Assay in all cases: FRET lipid mixing of SNARE liposomes
Type in all cases: biochemical
Details in all cases: 37°C; 10 µM polyphenol (as in Figure 2)
SNAP-23/Syn4/VAMP2 [1] = biological target: T1, SNAP-23/Syn4/VAMP2 (Rattus norvegicus, UniProt O70377+P63045+Q08850)
SNAP-23/Syn4/VAMP8 = biological target: T2, SNAP-23/Syn4/VAMP8 (Rattus norvegicus, UniProt O70377+Q08850+Q9WUF4)
T2 sequence (O70377 1-210): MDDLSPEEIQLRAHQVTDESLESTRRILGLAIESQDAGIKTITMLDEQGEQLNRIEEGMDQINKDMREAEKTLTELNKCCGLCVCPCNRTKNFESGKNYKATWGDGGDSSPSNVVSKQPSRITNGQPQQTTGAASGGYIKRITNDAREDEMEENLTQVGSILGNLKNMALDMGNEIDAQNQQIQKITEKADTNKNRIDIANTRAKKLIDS
T2 sequence (Q08850 1-298): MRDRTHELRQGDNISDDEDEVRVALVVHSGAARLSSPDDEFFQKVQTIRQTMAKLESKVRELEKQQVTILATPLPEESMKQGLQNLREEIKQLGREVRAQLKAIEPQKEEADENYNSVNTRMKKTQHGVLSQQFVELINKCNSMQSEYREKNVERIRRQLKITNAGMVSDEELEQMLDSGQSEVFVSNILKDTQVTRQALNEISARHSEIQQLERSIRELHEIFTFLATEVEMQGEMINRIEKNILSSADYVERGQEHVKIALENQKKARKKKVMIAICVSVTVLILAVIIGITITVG
T2 sequence (Q9WUF4 1-100): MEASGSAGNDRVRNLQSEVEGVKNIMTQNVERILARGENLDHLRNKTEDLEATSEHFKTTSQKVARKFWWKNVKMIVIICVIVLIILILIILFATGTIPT

SNAP-23/Syn4/VAMP2 [2] = biological target: T1, SNAP-23/Syn4/VAMP2; remark: listed apart in the source

T1 sequence (P63045 2-116, one chain of several): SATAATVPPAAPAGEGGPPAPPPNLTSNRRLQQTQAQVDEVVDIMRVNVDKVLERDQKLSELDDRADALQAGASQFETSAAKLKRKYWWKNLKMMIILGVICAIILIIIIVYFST

SMILES	% inhibition (SNAP-23/Syn4/VAMP2 [1])	% inhibition (SNAP-23/Syn4/VAMP8)	% inhibition (SNAP-23/Syn4/VAMP2 [2])
C[C@@H]1O[C@@H](OC[C@H]2O[C@@H](Oc3c(-c4ccc(O)c(O)c4)oc4cc(O)cc(O)c4c3=O)[C@H](O)[C@@H](O)[C@@H]2O)[C@H](O)[C@H](O)[C@H]1O [RT, rutin]			did not inhibit SNAP-23/Syn4/VAMP8- driven fusion, but did inhibit SNAP-23/Syn4/VAMP2-driven fusion
O=c1cc(-c2ccc(O)cc2)oc2cc(O)cc(O)c12 [AP, apigenin]	~ 40%	~ 90%	
O=C(O)/C=C/c1ccccc1 [TC, trans-cinnamic acid]			these polyphenols robustly inhibited SNAP-23/Syn4/VAMP2- driven fusion
COc1cc2c(c(OC)c1OC)-c1c(cc3c(c1OC)OCO3)CC(C)C(C)C2 (centres unmarked) [GN, gomisin N]			these polyphenols robustly inhibited SNAP-23/Syn4/VAMP2- driven fusion

Continued, in another order:

% inhibition (SNAP-23/Syn4/VAMP2 [1])	% inhibition (SNAP-23/Syn4/VAMP8)	SMILES	% inhibition (SNAP-23/Syn4/VAMP2 [2])
75-90%	75-90%	O=c1c(O)c(-c2cc(O)c(O)c(O)c2)oc2cc(O)cc(O)c12 [MR, myricetin]	
	~ 60%	Oc1cc(O)c2cc(O)c(-c3cc(O)c(O)c(O)c3)[o+]c2c1 [DL, delphinidin]	
